Experimental data as given in patent US20120004244A1, “Bis Aromatic Compounds for Use as LTC4 Synthase Inhibitors” (BIOLIPOX AB, priority 2009, published 2012).

Molecular target: T1, Recombinant human LTC4 synthase (Homo sapiens, UniProt Q16873)
T1 construct: made in house; host or cells: Pichia pastoris ('Piccia pastoralis' [sic])
T1 sequence (Q16873 1-150): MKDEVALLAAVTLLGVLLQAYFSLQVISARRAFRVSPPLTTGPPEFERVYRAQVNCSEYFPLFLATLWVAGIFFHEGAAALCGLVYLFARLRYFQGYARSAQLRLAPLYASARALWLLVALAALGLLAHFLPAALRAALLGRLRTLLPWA
Experiment: LTC4 synthase in vitro assay (LTA4 to LTC4, HTRF detection)
Format: biochemical
Conditions: for inhibition at 10 µM: 5 min, total concentration of title compound in the assay 10 μM
Description: In the assay, LTC4 synthase catalyses the reaction where the substrate LTA4 is converted to LTC4. Recombinant human LTC4 synthase is expressed in Piccia pastoralis and the purified enzyme is dissolved in 25 mM tris-buffer pH 7.8 supplemented with 0.1 mM glutathione (GSH) and stored at −80° C. The assay is performed in phosphate buffered saline (PBS) pH 7.4 and 5 mM GSH in 384-well plates.
The following is added chronologically to each well:
1.48 μL LTC4 synthase in PBS with 5 mM GSH. The total protein concentration in this solution is 0.5 μg/mL. 2. 1 μL inhibitor in DMSO (final concentration 10 μM). 3. Incubation of the plate at room temperature for 10 min. 4. 1 μL LTA4 (final concentration 2.5 μM). 5. Incubation of the plate at room temperature for 5 min. 6. 10 μL of the incubation mixture is analysed using homogenous time resolved fluorescent (HTRF) detection.

Row | Structure (SMILES) | IC50 | inhibition at 10 µM
1 | CN(c1ccc(Cl)cc1)c1ccc(C(=O)c2ccc(Nc3ccc(C(O)(C(F)(F)F)C(F)(F)F)cc3)c(C(=O)O)c2)nc1 [2:17, 5-{5-[(4-Chlorophenyl)(methyl)amino]picolinoyl}-2-[4-(1,1,1,3,3,3-hexafluoro-2-hydroxy-2-propyl)phenylamino]benzoic acid] | 138 nM | 
2 | CN(c1ccc(Cl)cc1)c1ccc(C(=O)c2ccc(Nc3cccc(S(C)(=O)=O)c3)c(C(=O)O)c2)nc1 [2:18, 5-{5-[(4-Chlorophenyl)(methyl)amino]picolinoyl}-2-(3-methylsulfonylphenyl-amino)benzoic acid] | 188 nM | 
3 | CN(c1ccc(Cl)cc1)c1ccc(C(=O)c2ccc(NC3CCSCC3)c(C(=O)O)c2)nc1 [2:19, 5-{5-[(4-Chlorophenyl)(methyl)amino]picolinoyl}-2-(4-tetrahydrothiopyranylamino)benzoic acid] | 149 nM | 
4 | CN(c1ccc(Cl)cc1)c1ccc(C(=O)c2ccc(NC3CCS(=O)(=O)CC3)c(C(=O)O)c2)nc1 [2:20, 5-{5-[(4-Chlorophenyl)(methyl)amino]picolinoyl}-2-(1,1-dioxotetrahydrothiopyran-4-ylamino)benzoic acid] | 658 nM | 
5 | CN(c1ccc(Cl)cc1)c1ccc(C(=O)c2ccc(Nc3ccccc3)c(C(=O)O)c2)nc1 [2:21, 5-{5-[(4-Chlorophenyl)(methyl)amino]picolinoyl}-2-phenylaminobenzoic acid] | 139 nM | 
6 | CN(c1ccc(Cl)cc1)c1ccc(C(=O)c2ccc(N3CCC(C(F)(F)F)CC3)c(C(=O)O)c2)nc1 [2:22, 5-{5-[(4-Chlorophenyl)(methyl)amino]picolinoyl}-2-(4-trifluoromethyl-1-piperidinyl)benzoic acid] | 2000 nM | 
7 | COc1ccccc1C(=O)Nc1ccc(C(=O)c2ccc(N(CC3CC3)c3ccc(Cl)cc3)cn2)cc1C(=O)O [3:8, 5-{5-[(4-Chlorophenyl)(cyclopropylmethyl)amino]picolinoyl}-2-(2-methoxy-benzamido)benzoic acid] | 40 nM | 
8 | CN(c1ccc(Cl)cc1)c1ccc(C(=O)c2ccc(NC(=O)c3ccc(OC(F)(F)F)cc3)c(C(=O)O)c2)nc1 [3:11, 5-{5-[(4-Chlorophenyl)(methyl)amino]picolinoyl}-2-(4-trifluoromethoxy-benzamido)benzoic acid] | 44 nM | 
9 | CN(c1ccc(Cl)cc1)c1ccc(C(=O)c2ccc(NC(=O)c3ccccc3OC(F)(F)F)c(C(=O)O)c2)nc1 [3:12, 5-{5-[(4-Chlorophenyl)(methyl)amino]picolinoyl}-2-(2-trifluoromethoxy-benzamido)benzoic acid] | 104 nM | 
10 | CN(c1ccc(Cl)cc1)c1ccc(C(=O)c2ccc(NC(=O)c3ccc(S(C)(=O)=O)cc3)c(C(=O)O)c2)nc1 [3:14, 5-{5-[(4-Chlorophenyl)(methyl)amino]picolinoyl}-2-(4-methylsulfonyl-benzamido)benzoic acid] | 67 nM | 
11 | CN(c1ccc(Cl)cc1)c1ccc(C(=O)c2ccc(NC(=O)c3ccc(S(=O)(=O)N(C)C)cc3)c(C(=O)O)c2)nc1 [3:15, 5-{5-[(4-Chlorophenyl)(methyl)amino]picolinoyl}-2-(4-dimethylsulfamoyl-benzamido)benzoic acid] | 41 nM | 
12 | COc1cc(C(=O)Nc2ccc(C(=O)c3ccc(N(C)c4ccc(Cl)cc4)cn3)cc2C(=O)O)cc(OC)c1OC [3:16, 5-{5-[(4-Chlorophenyl)(methyl)amino]picolinoyl}-2-(3,4,5-trimethoxybenz-amido)benzoic acid] | 157 nM | 
13 | CN(c1ccc(Cl)cc1)c1ccc(C(=O)c2ccc(NC(=O)c3ccc4c(c3)OC(F)(F)O4)c(C(=O)O)c2)nc1 [3:17, 5-{5-[(4-Chlorophenyl)(methyl)amino]picolinoyl}-2-[3,4-(difluoromethylene-dioxy)benzamido]benzoic acid] | 38 nM | 
14 | CN(c1ccc(Cl)cc1)c1ccc(C(=O)c2ccc(NC(=O)c3cccc4c3OC(F)(F)O4)c(C(=O)O)c2)nc1 [3:18, 5-{5-[(4-Chlorophenyl)(methyl)amino]picolinoyl}-2-[2,3-(difluoromethylene-dioxy)benzamido]benzoic acid] | 112 nM | 
15 | CN(c1ccc(Cl)cc1)c1ccc(C(=O)c2ccc(NC(=O)c3ccccc3C#N)c(C(=O)O)c2)nc1 [3:20, 5-{5-[(4-Chlorophenyl)(methyl)amino]picolinoyl}-2-(2-cyanobenzamido)benzoic acid] | 3000 nM | 
16 | COc1ccc(C(=O)Nc2ccc(C(=O)c3ccc(N(C)c4ccc(Cl)cc4)cn3)cc2C(=O)O)cc1OC [3:26, 5-{5-[(4-Chlorophenyl)(methyl)amino]picolinoyl}-2-(3,4-dimethoxybenzamido)-benzoic acid] | 37 nM | 
17 | COc1cccc(C(=O)Nc2ccc(C(=O)c3ccc(N(C)c4ccc(Cl)cc4)cn3)cc2C(=O)O)c1OC [3:27, 5-{5-[(4-Chlorophenyl)(methyl)amino]picolinoyl}-2-(2,3-dimethoxybenzamido)-benzoic acid] | 40 nM | 

Stronger by IC50, values ahead:

Row | IC50 | inhibition at 10 µM | Structure (SMILES)
18 | 33 nM | 100% | CN(c1ccc(Cl)cc1)c1ccc(C(=O)c2ccc(NC(=O)c3ccc(C(F)(F)F)cc3)c(C(=O)O)c2)nc1 [3:1, 5-{5-[(4-Chlorophenyl)(methyl)amino]picolinoyl}-2-(4-trifluoromethylbenzamido)-benzoic acid]
19 | 25 nM | 100% | CN(c1ccc(Cl)cc1)c1ccc(C(=O)c2ccc(NC(=O)c3cc(Cl)ccc3O)c(C(=O)O)c2)nc1 [3:2, 2-(5-Chloro-2-hydroxybenzamido)-5-{5-[(4-chlorophenyl)(methyl)amino]-picolinoyl}benzoic acid]
20 | 34 nM |  | CN(c1ccc(Cl)cc1)c1ccc(C(=O)c2ccc(NC(=O)c3ccccc3)c(C(=O)O)c2)nc1 [3:3, 2-Benzamido-5-{5-[(4-chlorophenyl)(methyl)amino]picolinoyl}benzoic acid]
21 | 23 nM |  | COc1ccc(C(=O)Nc2ccc(C(=O)c3ccc(N(C)c4ccc(Cl)cc4)cn3)cc2C(=O)O)cc1 [3:4, 5-{5-[(4-Chlorophenyl)(methyl)amino]picolinoyl}-2-(4-methoxybenzamido)-benzoic acid]
22 | 32 nM |  | COc1ccccc1C(=O)Nc1ccc(C(=O)c2ccc(N(C)c3ccc(Cl)cc3)cn2)cc1C(=O)O [3:5, 5-{5-[(4-Chlorophenyl)(methyl)amino]picolinoyl}-2-(2-methoxybenzamido)-benzoic acid]
23 | 11 nM |  | CN(c1ccc(Cl)cc1)c1ccc(C(=O)c2ccc(NC(=O)c3ccc4c(c3)OCO4)c(C(=O)O)c2)nc1 [3:6, 5-{5-[(4-Chlorophenyl)(methyl)amino]picolinoyl}-2-(3,4-methylenedioxy-benzamido)benzoic acid]
24 | 31 nM |  | COc1ccc(C(=O)Nc2ccc(C(=O)c3ccc(N(CC4CC4)c4ccc(Cl)cc4)cn3)cc2C(=O)O)cc1 [3:7, 5-{5-[(4-Chlorophenyl)(cyclopropylmethyl)amino]picolinoyl}-2-(4-methoxy-benzamido)benzoic acid]
25 | 21 nM |  | O=C(Nc1ccc(C(=O)c2ccc(N(CC3CC3)c3ccc(Cl)cc3)cn2)cc1C(=O)O)c1ccc2c(c1)OCO2 [3:9, 5-{5-[(4-Chlorophenyl)(cyclopropylmethyl)amino]picolinoyl}-2-(3,4-methylene-dioxybenzamido)benzoic acid]
26 | 24 nM |  | COc1cccc(C(=O)Nc2ccc(C(=O)c3ccc(N(C)c4ccc(Cl)cc4)cn3)cc2C(=O)O)c1 [3:10, 5-{5-[(4-Chlorophenyl)(methyl)amino]picolinoyl}-2-(3-methoxybenzamido)-benzoic acid]
27 | 23 nM |  | COc1ccc(C(=O)Nc2ccc(C(=O)c3ccc(N(C)c4ccc(Cl)cc4)cn3)cc2C(=O)O)c(OC)c1 [3:13, 5-{5-[(4-Chlorophenyl)(methyl)amino]picolinoyl}-2-(2,4-dimethoxy-benzamido)benzoic acid]
28 | 17 nM |  | CN(c1ccc(Cl)cc1)c1ccc(C(=O)c2ccc(NC(=O)c3ccc4c(c3)OCCO4)c(C(=O)O)c2)nc1 [3:19, 5-{5-[(4-Chlorophenyl)(methyl)amino]picolinoyl}-2-(3,4-ethylenedioxy-benzamido)benzoic acid]
29 | 25 nM |  | COc1ccc(OC)c(C(=O)Nc2ccc(C(=O)c3ccc(N(C)c4ccc(Cl)cc4)cn3)cc2C(=O)O)c1 [3:21, 5-{5-[(4-Chlorophenyl)(methyl)amino]picolinoyl}-2-(2,5-dimethoxybenzamido)-benzoic acid]
30 | 16 nM |  | COc1ccc(C(=O)Nc2ccc(C(=O)c3ccc(N(CC4CC4)c4ccc(Cl)cc4)cn3)cc2C(=O)O)c(OC)c1 [3:22, 5-{5-[(4-Chlorophenyl)(cyclopropylmethyl)amino]picolinoyl}-2-(2,4-dimethoxy-benzamido)benzoic acid]
31 | 33 nM |  | COc1cccc(C(=O)Nc2ccc(C(=O)c3ccc(N(CC4CC4)c4ccc(Cl)cc4)cn3)cc2C(=O)O)c1 [3:23, 5-{5-[(4-Chlorophenyl)(cyclopropylmethyl)amino]picolinoyl}-2-(3-methoxy-benzamido)benzoic acid]
32 | 16 nM |  | O=C(Nc1ccc(C(=O)c2ccc(N(CC3CC3)c3ccc(Cl)cc3)cn2)cc1C(=O)O)c1ccc2c(c1)OC(F)(F)O2 [3:24, 5-{5-[(4-Chlorophenyl)(cyclopropylmethyl)amino]picolinoyl}-2-[3,4-(difluoromethylenedioxy)benzamido]benzoic acid]
33 | 11 nM |  | O=C(Nc1ccc(C(=O)c2ccc(N(CC3CC3)c3ccc(Cl)cc3)cn2)cc1C(=O)O)c1ccc2c(c1)OCCO2 [3:25, 5-{5-[(4-Chlorophenyl)(cyclopropylmethyl)amino]picolinoyl}-2-(3,4-ethylene-dioxybenzamido)benzoic acid]
